Laboratory results: US20260207577A1, “METHODS OF USING FACTOR B INHIBITORS” (priority 2023, published 2026)

Tests used:
Format in all cases: in vivo, human
[1] = system: native C3G patients; assay: Phase 2 study CLNP023X2202, proteinuria and renal function; conditions: native C3G patients (N=16), final dose levels of 200 mg b.i.d.
Protocol: (§1) The proposed iptacopan dose of 200 mg b.i.d. is considered appropriate based on data from the Phase 2 study, CLNP023X2202. […] Thus, the 200 mg b.i.d. dose of iptacopan appears to produce maximum changes in all of the complement biomarkers that have been evaluated to date in C3G patients.

[2] = system: native kidney C3G patients; assay: Phase 2 study CLNP023X2202, safety and tolerability
Protocol: as §1

[3] = system: alternative complement pathway; assay: Phase 2 study CLNP023X2202, complement biomarkers
Protocol: as §1

## CCO[C@H]1CCN(Cc2c(OC)cc(C)c3[nH]ccc23)[C@H](c2ccc(C(=O)O)cc2)C1 [iptacopan, 4-((2S,4S)-(4-ethoxy-1-((5-methoxy-7-methyl-1H-indol-4-yl)methyl)piperidin-2-yl))benzoic acid]
[1]
  renal function (SCR, CrCl, eGFR): stabilization of renal function
[1]; two-sided p=0.0003
  reduction in UPCR from baseline to Week 12: 45%
[2]; in vivo
  changes in hematology, biochemistry, urinalysis, vital signs or ECG parameters: no notable changes
  discontinuations due to adverse events: no definitive discontinuations due to adverse events
  tolerability: well tolerated without unexpected or new safety findings
[2]; native kidney C3G patients
  deaths or serious adverse events during the treatment period: no deaths or serious adverse events were observed
[3]; 16 native C3G patients
  C3 levels, dose dependence: increased dose-dependently
  dose at which maximum decreases in plasma Bb, plasma sC5b-9 and urine sC5b-9 were obtained: 100 mg b.i.d.
  dose at which maximum decreases in the Wieslab assay and increases in C3 were observed: 200 mg b.i.d.
  sC5b-9, Bb, the Wieslab assay and urine sC5b-9, dose dependence: decreased dose-dependently
[3]; Cohort A
  plasma Bb, plasma and urine sC5b-9: reduction
[3]; at 200 mg b.i.d
  Wieslab activity: full inhibition
[3]; both cohorts
  serum C3 levels: overall normalization
[3]; both cohorts, upon iptacopan treatment
  inhibition of alternative complement pathway: Dose-dependent, profound and sustained inhibition
